Assay type in all cases: cell-based
For experiment [1], the target named is T1, human prostanoid FP receptor (Homo sapiens, UniProt P43088).
T1 construct: expressed in transfected cells
The experiment in a line: FLIPR Ca2+ signaling antagonist assay, FP receptor stable cell line. Conditions: HEK-293 EBNA stable cells, standard agonist 17-phenyl-PGF2α; NA = inactive (no antagonism or Kb≧10,000 nM). The procedure: (§1) The above compounds were tested for PG antagonist activity as follows using human recombinant prostanoid receptor (DP1, EP1-4, FP, IP and TP) stable cell lines:
(§2) In order to measure the response of Gs and Gi coupled prostanoid receptors as a Ca^2+ signal, chimeric G protein cDNAs were used. Stable cell lines over-expressing human prostanoid DP1, EP1-4, FP, IP, and TP receptors were established as follows:
(§3) Briefly, human prostanoid DP1, EP2, and EP4 receptor cDNAs were co-transfected with chimeric Gqs cDNA containing a haemagglutanin (HA) epitope; human prostanoid EP3 receptors were co-transfected with chimeric Gqi-HA; human EP1, FP, IP, and TP receptor cDNAs were expressed with no exogenous G-proteins. Gqs and Gqi chimeric cDNAs (Molecular Devices, Sunnyvale, Calif., U.S.A.), as well as cDNAs of prostanoid receptors, were cloned into a pCEP4 vector with a hygromycin B selection marker. Transfection into HEK-293 EBNA (Epstein-Barr virus nuclear antigen) cells was achieved by the FuGENE 6 transfection Reagent (Roche Applied Science, Indianapolis, Ind., USA). Stable transfectants were selected according to hygromycin resistance. Because Gqs and Gqi contained an HA epitope, G-protein expression was detected by Western blotting analysis using anti-mouse HA monoclonal antibody and horseradish peroxidase (HRP)-conjugated secondary antibody, while functional expression of prostanoid receptors was detected by FLIPR screening (Matias et al., 2004). These stable cell lines were validated using previously published antagonists at 10 μM against serial dilutions of standard agonists by FLIPR functional assays for Ca^2+ Signaling (as described below).
(§4) Ca^2+ signaling studies were performed using a FLIPR TETRA system (Molecular Devices, Sunnyvale, Calif., USA) in the 384-format. This is a high-throughput instrument for cell-based assays to monitor Ca^2+ signaling associated with GPCRs and ion channels. Cells were seeded at a density of 5×10^4 cells/well in BioCoat poly-D-lysine coated, black wall, clear bottom 384-well plates (BD Biosciences, Franklin lakes, NJ, USA) and allowed to attach overnight in an incubator at 37° C. The cells were then washed twice with HBSS-HEPES buffer (Hanks' balanced salt solution without bicarbonate and phenol red, 20 mM HEPES, pH 7.4) using an ELx405 Select CW Microplate Washer (BioTek, Winooski, Vt., USA). After 60 min of dye-loading in the dark using the Ca^2+-sensitive dye Fluo-4AM (Invitrogen, Carlsbad, Calif., USA), at a final concentration of 2×10^−6M, the plates were washed 4 times with HBSS-HEPES buffer to remove excess dye and leaving 50 μl of buffer in each well. The plates were then placed in the FLIPR TETRA instrument and allowed to equilibrate at 37° C. AGN-211377 was added in a 25 μl volume to each well to give final concentrations of 0.1 μM, 0.3 μM, 1 μM, 3 μM, 10 μM, and 30 μM; or 0.067 μM, 0.1 μM, 0.2 μM, 0.3 μM, 0.67 μM, and 1 μM for cells over-expressing TP receptors. After 4.5 minutes, a 7-point serial dilution of the standard agonist for the corresponding receptor, in a 25 μl volume was injected at the final concentrations from 10^−11M to 10^−5M in 10-fold serial dilution increments for cells expressing human recombinant DP1, EP1, EP2, EP3, EP4, FP, and IP receptors. The dose range for the standard agonist for human recombinant TP receptors was from 10^−12M to 10^−6M. HBSS-HEPES buffer was used as the negative control for the standard agonists. Cells were excited with LED (light emitting diode) excitation at 470-495 nm and emission was measured through an emission filter at 515-575 nm. Assay plates were read for 3.5 minutes using the FLIPR^TETRA. The peak increase in fluorescence intensity was recorded for each well. On each plate, negative controls, dose response of positive controls, and co-treatments of antagonist-agonist for each dose were in triplicates. Standard agonists were as follows: DP=BW 245C, EP1-EP4=PGE2, FP=17-phenyl-PGF2α, IP=Cicaprost, and TP=U-46619. […]

Experiment [2] deals with T2, human prostanoid EP1 receptor (Homo sapiens, UniProt P34995).
T2 construct: expressed in transfected cells
T2 sequence (P34995 1-402): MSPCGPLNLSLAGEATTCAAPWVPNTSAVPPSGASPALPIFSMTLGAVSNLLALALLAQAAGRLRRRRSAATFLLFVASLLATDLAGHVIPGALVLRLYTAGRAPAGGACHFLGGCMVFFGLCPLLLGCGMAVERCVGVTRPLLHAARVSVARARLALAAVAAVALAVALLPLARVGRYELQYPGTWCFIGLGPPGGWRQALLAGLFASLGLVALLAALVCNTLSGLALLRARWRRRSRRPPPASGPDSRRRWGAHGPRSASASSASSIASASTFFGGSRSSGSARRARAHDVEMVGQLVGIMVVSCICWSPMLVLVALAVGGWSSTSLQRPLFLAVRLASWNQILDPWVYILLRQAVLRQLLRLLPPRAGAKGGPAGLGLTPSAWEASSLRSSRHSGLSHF
The experiment in a line: FLIPR Ca2+ signaling antagonist assay, EP1 receptor stable cell line. Conditions: HEK-293 EBNA stable cells, standard agonist PGE2; NA = inactive (no antagonism or Kb≧10,000 nM). The method, then:
as §1, §2, §3, §4

In experiment [3] the target is T3, human prostanoid IP receptor (Homo sapiens, UniProt P43119).
T3 construct: expressed in transfected cells
The experiment in a line: FLIPR Ca2+ signaling antagonist assay, IP receptor stable cell line. Conditions: HEK-293 EBNA stable cells, standard agonist Cicaprost; NA = inactive (no antagonism or Kb≧10,000 nM). The procedure:
as §1, §2, §3, §4

Experiment [4] has as its target T4, human prostanoid TP receptor (Homo sapiens, UniProt P21731).
T4 construct: expressed in transfected cells
T4 sequence (P21731 1-343): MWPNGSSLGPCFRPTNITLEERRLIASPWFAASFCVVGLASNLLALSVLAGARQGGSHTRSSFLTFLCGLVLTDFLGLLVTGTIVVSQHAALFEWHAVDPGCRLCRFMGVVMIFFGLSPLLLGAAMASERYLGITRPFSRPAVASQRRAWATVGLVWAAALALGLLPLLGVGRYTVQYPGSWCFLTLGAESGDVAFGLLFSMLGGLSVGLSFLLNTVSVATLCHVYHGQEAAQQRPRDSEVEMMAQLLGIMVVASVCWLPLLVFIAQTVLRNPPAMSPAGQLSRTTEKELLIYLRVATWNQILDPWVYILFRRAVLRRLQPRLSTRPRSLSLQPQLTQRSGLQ
The experiment is described as follows: FLIPR Ca2+ signaling antagonist assay, TP receptor stable cell line. The settings on record: HEK-293 EBNA stable cells, standard agonist U-46619; NA = inactive (no antagonism or Kb≧10,000 nM). The method, then:
as §1, §2, §3, §4

Molecules are shown by their SMILES.

T3 sequence (P43119 whole entry): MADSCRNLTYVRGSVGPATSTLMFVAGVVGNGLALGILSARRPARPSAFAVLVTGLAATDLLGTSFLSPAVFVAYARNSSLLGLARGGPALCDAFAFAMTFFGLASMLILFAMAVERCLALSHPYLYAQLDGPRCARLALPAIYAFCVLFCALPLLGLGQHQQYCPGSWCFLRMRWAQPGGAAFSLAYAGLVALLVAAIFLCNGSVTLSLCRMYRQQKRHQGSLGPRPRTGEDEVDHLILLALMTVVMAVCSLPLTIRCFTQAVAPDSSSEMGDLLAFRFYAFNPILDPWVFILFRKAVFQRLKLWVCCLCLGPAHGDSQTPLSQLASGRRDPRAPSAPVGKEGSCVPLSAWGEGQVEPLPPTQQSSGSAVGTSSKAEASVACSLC
T1 sequence (P43088 whole entry): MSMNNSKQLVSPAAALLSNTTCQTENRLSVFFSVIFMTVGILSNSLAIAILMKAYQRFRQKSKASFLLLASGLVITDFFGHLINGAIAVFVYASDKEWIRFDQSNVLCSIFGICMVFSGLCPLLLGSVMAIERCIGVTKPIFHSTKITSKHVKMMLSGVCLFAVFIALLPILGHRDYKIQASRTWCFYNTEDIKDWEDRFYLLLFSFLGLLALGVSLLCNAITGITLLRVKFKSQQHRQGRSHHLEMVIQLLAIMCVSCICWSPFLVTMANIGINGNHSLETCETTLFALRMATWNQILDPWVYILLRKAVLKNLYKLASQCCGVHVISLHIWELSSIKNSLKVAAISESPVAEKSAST

As usually defined, the Kb is the affinity of an antagonist, worked out from how it opposes an agonist. Lower therefore signals a more potent antagonist. `CCC(CC)COc1ccc(Cl)cc1Cn1nc(CCC(=O)O)cc1C` [Example 3a, 3-{1-[5-Chloro-2-(2-ethyl-butoxy)-benzyl]-5-methyl-1H-pyrazol-3-yl}-propionic acid]: the Kb was determined as 180 nM in experiment [1], 71 nM in experiment [2], 1100 nM in experiment [3] and 5 nM in experiment [4].
On to `Cc1cc(CCC(=O)O)nn1Cc1cc(Br)ccc1OCC1CCCC1` [Example 4, 3-[1-(5-Bromo-2-cyclopentylmethoxybenzyl)-5-methyl-1H-pyrazol-3-yl]-propionic acid], for which the Kb turned out to be 75 nM in experiment [1], 24 nM in experiment [2], 1600 nM in experiment [3] and 30 nM in experiment [4].
Taken in the same sequence, the figures for `CCC(CC)COc1ccc(Br)cc1Cn1nc(CCC(=O)O)cc1C` [Example 3, 3-{1-[5-Bromo-2-(2-ethyl-butoxy)-benzyl]-5-methyl-1H-pyrazol-3-yl}-propionic acid] were 75 nM, 40 nM, 1600 nM and 9 nM.
As for `Cc1cc(CCC(=O)NS(=O)(=O)C(F)(F)F)nn1Cc1cc(Cl)ccc1OCc1ccc(Cl)cc1` [Example 1, N-(3-{1-[5-Chloro-2-(4-Chloro-Benzyloxy)-Benzyl]-5-Methyl-1H-Pyrazol-3-yl}-Propionyl)-C,C,C-Trifluoromethanesulfonamide], the Kb was determined as 140 nM in experiment [1], 22 nM in experiment [2], 620 nM in experiment [3] and 12 nM in experiment [4].

For the origin of these results see US20140121258A1, “COMPOUNDS ACT AT MULTIPLE PROSTAGLANDIN RECEPTORS GIVING A GENERAL ANTI-INFLAMMATORY RESPONSE” (ALLERGAN, INC., priority 2010, published 2014).
